Data as given in PMC4472624, “Pharmacokinetics of daptomycin in patients undergoing low-flow continuous venovenous hemodiafiltration” (Critical Care, 2015).
Like-named read-outs stand apart in the source and are kept apart here.

Columns and labels:
[1] = Pharmacokinetics of daptomycin in patients undergoing low-flow CVVHDF; format: in vivo, human; details: 6 mg/kg i.v. every 48 hours, HPLC; for AUC / half-life: 6 mg/kg; for AUC: read-out: area under the concentration-time curve (AUC); for half-life: read-out: elimination half-life (t1/2) (converted)
Protocol: DAP (6 mg/kg) was administered intravenously every 48 hours to CVVHDF patients in the ICU. Blood and filtrate samples were collected at 0, 1, 1.5, 2, 5, 12, 24, and 48 hours after infusion. All collected samples were analyzed using HPLC according to the method of Tobin et al.. Maximum concentration (Cmax), elimination half-life (t1/2), area AUC, Cmin, volume of distribution (Vd), clearance (CL), fraction unbound, and sieving coefficient (Sc) were evaluated. Patient characteristics and CVVHDF parameters including blood, dialysate, and filtration flow rates were recorded.

[2] = cited from earlier work
From the text: In Japan, CVVHDF is preferentially performed with lower flow rates. Investigating effects of flow rate on DAP removal during co ...

[3] = low-flow CVVHDF, blood and filtrate samples, mean of three patients
[4] = human, blood, iv, low-flow CVVHDF, single patient, first listed
[5] = human, blood, iv, low-flow CVVHDF, single patient, second listed
[6] = human, blood, iv, low-flow CVVHDF, single patient, third listed

With `CCCCCCCCCC(=O)N[C@@H](Cc1c[nH]c2ccccc12)C(=O)N[C@H](CC(N)=O)C(=O)N[C@@H](CC(=O)O)C(=O)N[C@@H]1C(=O)NCC(=O)N[C@@H](CCCN)C(=O)N[C@@H](CC(=O)O)C(=O)N[C@H](C)C(=O)N[C@@H](CC(=O)O)C(=O)NCC(=O)N[C@H](CO)C(=O)N[C@@H]([C@H](C)CC(=O)O)C(=O)N[C@@H](CC(=O)c2ccccc2N)C(=O)O[C@@H]1C` [DAP, daptomycin] the “trough serum concentration (Cmin)” value ([1]; low-flow CVVHDF, single patient, first listed) was 2.3 µg/mL, the “trough serum concentration (Cmin)” value ([1]; low-flow CVVHDF, single patient, second listed) was 24.7 µg/mL and the “trough serum concentration (Cmin)” value ([1]; low-flow CVVHDF, single patient, third listed) was 14.0 µg/mL. For the same molecule, the CL of dialyzer [1, 3] was 1.20 ± 0.39 mL/min, the “sieving coefficient (Sc)” value [1, 3] was 0.08 ± 0.03 and the CL of dialyzer ([1]; low-flow CVVHDF, blood and filtrate samples, single patient, first listed) was 1.70 mL/min. It also gave a CL of dialyzer ([1]; low-flow CVVHDF, blood and filtrate samples, single patient, second listed) of 0.88 mL/min, a CL of dialyzer ([1]; low-flow CVVHDF, blood and filtrate samples, single patient, third listed) of 0.96 mL/min and an AUC [1, 4] of 471 µg·h/mL. The half-life [1, 4] was 18.6 h, the AUC [1, 5] was 967 µg·h/mL and the half-life [1, 5] was 11.5 h. For the same molecule, the AUC [1, 6] was 1260 µg·h/mL, the half-life [1, 6] was 70.5 h and the fraction unbound ([1]; human, blood, iv, ICU patients on low-flow CVVHDF, mean of three patients) was 0.058. The clearance ([1]; human, blood, iv, ICU patients on low-flow CVVHDF, mean of three patients, read-out: clearance (CL)) was 9.47 ± 4.56 mL/min, the Vd ([1]; human, blood, iv, ICU patients on low-flow CVVHDF, mean of three patients, read-out: volume of distribution (Vd)) was 26 ± 20.9 L and the Cmax ([1]; human, iv, ICU patients on low-flow CVVHDF, blood samples 0-48 hours, mean of three patients, read-out: Maximum concentration (Cmax)) was 50.1 ± 12.7 µg/mL. The “AUC/MIC required to obtain clinical success” value [2] was 1,061 mg hour/l.
